Reference: the supplement of paper PMC6965134
± gives the standard deviation of the averaged measurements.

Experiment: TIMS collisional cross section (CCS, N2) of the lipid ion; higher = larger ion cross section
Details: ionization mode: positive, one isomer drawn

TIMS collisional cross section (sample type: HeLa) [Å²]	TIMS collisional cross section (sample type: Liver) [Å²]	TIMS collisional cross section (sample type: plasma) [Å²]	Structure (SMILES)
315	–	–	CC/C=C\C/C=C\C/C=C\C/C=C\C/C=C\C/C=C\CCC(=O)OC[C@@H](COC(=O)CCCCCCCCCCCCC)OC(=O)CCCCCCC/C=C\CCCCCC [TG 14:0_16:1_22:6] (ion (formula + adduct): [C55H92O6+NH4] 1+)
314.8	–	–	CC/C=C\C/C=C\C/C=C\CCCCCCCC(=O)OC[C@@H](COC(=O)CCCCCCC/C=C\CCCCCC)OC(=O)CCCCCCC/C=C\CCCCCCC [TG 16:1_17:1_18:3] (ion (formula + adduct): [C54H94O6+NH4] 1+)
266.8	267	–	CCCCC/C=C\C/C=C\C/C=C\CCCCCCC(=O)O[C@@H](CO)COC(=O)CCCCCCC/C=C\CCCCCCCC [DG 18:1_20:3_0:0] (ion (formula + adduct): [C41H72O5+NH4] 1+)
341.2	340.8	340.7	CCCCCCCCCCCCCCCCCCCCCC(=O)OC[C@@H](COC(=O)CCCCCCCCCCCCCCC)OC(=O)CCCCCCCCCCCCCCCCCC [TG 16:0_19:0_22:0] (ion (formula + adduct): [C60H116O6+NH4] 1+)
332.4	–	–	CC/C=C\C/C=C\C/C=C\C/C=C\C/C=C\C/C=C\CCC(=O)OC[C@@H](COC(=O)CCCCCCC/C=C\CCCCCC)OC(=O)CCCCC/C=C\C/C=C\C/C=C\C/C=C\C/C=C\CC [TG 16:1_22:5_22:6] (ion (formula + adduct): [C63H98O6+NH4] 1+)
–	335	334.9 ± 0.42	CCCCCCCCCCCCCCCCCCCCCC(=O)OC[C@@H](COC(=O)CCCCCCCCCCCCCCC)OC(=O)CCCCCCCCCCCCCCCC [TG 16:0_17:0_22:0] (ion (formula + adduct): [C58H112O6+NH4] 1+)
308.3	–	308.1	CCCCCCCCCCCCC/C=C/[C@@H](O)[C@H](COP(=O)([O-])OCC[N+](C)(C)C)NC(=O)CCCCCCCCCCCCCCCCCCCCCCC [SM d18:1_24:0@] (ion (formula + adduct): [C47H95N2O6P+H] 1+)
–	266.9	–	CC/C=C\C/C=C\C/C=C\C/C=C\C/C=C\CCCCCC(=O)O[C@@H](CO)COC(=O)CCCCCCC/C=C\C/C=C\CCCCC [DG 18:2_22:5_0:0] (ion (formula + adduct): [C43H70O5+NH4] 1+)
258.5	258.9	259.1	CCCCCCCCCCCCCCCCCCCCCCCC(=O)OC[C@@H](O)COP(=O)([O-])OCC[N+](C)(C)C [LPC 24:0] (ion (formula + adduct): [C32H66NO7P+H] 1+)
307.1	–	307.3	CCCCCC/C=C\CCCCCCCC(=O)O[C@@H](COC(=O)CCCCCCC/C=C\CCCCCCC)COC(=O)CCCCCCCCCCCCC [TG 14:0_16:1_17:1] (ion (formula + adduct): [C50H92O6+NH4] 1+)
327.3	327.7	327.4	CCCCCCCC/C=C\CCCCCCCC(=O)OC[C@@H](COC(=O)CCCCCCCCCCCCCCCC)OC(=O)CCCCCCCCCCCCCCCCC [TG 17:0_18:0_18:1] (ion (formula + adduct): [C56H106O6+NH4] 1+)
–	–	224.9	CC/C=C\C/C=C\C/C=C\CCCCCCCC(=O)OC[C@@H](O)COP(=O)([O-])OCC[N+](C)(C)C [LPC 18:3] (ion (formula + adduct): [C26H48NO7P+H] 1+)
–	–	298.9	CCCCCCCC/C=C\CCCCCCCC(=O)OC[C@@H](COC(=O)CCCCCCCCCCC)OC(=O)CCCCCCCCCCCCC [TG 12:0_14:0_18:1] (ion (formula + adduct): [C47H88O6+NH4] 1+)
–	330.3	–	CCCCC/C=C\C/C=C\CCCCCCCCCC(=O)OC[C@@H](COC(=O)CCCCCCCCCCCCCCCCC)OC(=O)CCCCCCC/C=C\C/C=C\CCCCC [TG 18:0_18:2_20:2] (ion (formula + adduct): [C59H106O6+NH4] 1+)
207.1	–	–	CC(C)CCC[C@@H](C)[C@H]1CC[C@H]2[C@@H]3CC=C4C[C@@H](O)CC[C@]4(C)[C@H]3CC[C@]12C [Cholesterol] (ion (formula + adduct): [C27H46O+H] 1+)
–	290.4	–	CCCCC/C=C\C/C=C\C/C=C\C/C=C\CCCC(=O)OC[C@H](COP(=O)(O)OCCN)OC(=O)CCCCCCCCCCCCCCCCCCC [PE 20:4_20:0] (ion (formula + adduct): [C45H82NO8P+H] 1+)
318.75 ± 0.21	–	318.4	CCCCCC/C=C/CCCCCCCCCC(=O)OC[C@@H](COC(=O)CCCCCCCCCCCCCCC)OC(=O)CCCCCCCCCCCCCCC [TG 16:0_16:0_18:1] (ion (formula + adduct): [C53H100O6+NH4] 1+)
279.7	–	280.6	CCCCCCCC/C=C/CCCCCCCC(=O)OC[C@H](COP(=O)(O)OCCN)OC(=O)CCCCCCC/C=C/CCCCCCCC [PE 18:1_18:1] (ion (formula + adduct): [C41H78NO8P+Na] 1+)
223.8	–	223.6	CCCCC/C=C\C/C=C\C/C=C\C/C=C\CCCCCC(=O)OC[C@@H](O)COP(=O)(O)OCCN [LPE 22:4] (ion (formula + adduct): [C27H48NO7P+H] 1+)
257.7	–	–	CCCCCC/C=C/CCCCCCCCCC(=O)OC[C@H](CO)OC(=O)CCCCCCCCCCCCCCC [DG 18:1_16:0_0:0] (ion (formula + adduct): [C37H70O5+H] 1+)
–	–	328.3	CCCCCCCCCCCCCCCCCCCCCC(=O)OC[C@@H](COC(=O)CCCCCCCCCCCCCC)OC(=O)CCCCCCCCCCCCCCC [TG 15:0_16:0_22:0] (ion (formula + adduct): [C56H108O6+NH4] 1+)
317.6	–	–	CC/C=C\C/C=C\C/C=C\C/C=C\C/C=C\C/C=C\CCC(=O)OC[C@@H](COC(=O)CCCCCCCCCCCCC)OC(=O)CCCCCCCCCCCCCCC [TG 14:0_16:0_22:6] (ion (formula + adduct): [C55H94O6+NH4] 1+)
–	–	301.3	CCCCCCCCCCCCCCCCCCCCCC(=O)OC[C@H](CO)OC(=O)CCCCCCCCCCCCCCCCCCCCC [DG 22:0_22:0_0:0] (ion (formula + adduct): [C47H92O5+NH4] 1+)
–	–	242	CCCCC/C=C\C/C=C\CCCCCCCCCCCC(=O)OC[C@@H](O)COP(=O)([O-])OCC[N+](C)(C)C [LPC 22:2] (ion (formula + adduct): [C30H58NO7P+H] 1+)
262.87 ± 0.64	262.85 ± 0.21	263.1	CCCCCC/C=C/CCCCCCCCCC(=O)OC[C@H](CO)OC(=O)CCCCCCCCCCCCCCC [DG 18:1_16:0_0:0] (ion (formula + adduct): [C37H70O5+NH4] 1+)
